In ChEMBL document CHEMBL1158740, “Oxylipins arabidopsides C and D from Arabidopsis thaliana” (2005):

Tested on: Lepidium sativum
Test: Inhibition of Lepidium sativum cress root growth at 5X10'-5 mol/L after 40 hrs
Type: functional

| SMILES | inhibition at 50 µM |
| --- | --- |
| CC/C=C\C[C@H]1C(=O)CC[C@@H]1CC(=O)O [JASMONIC ACID] | 50% |
| CC/C=C\CC1C(=O)C=CC1CCCCCCCC(=O)O (cis isomer) | 50% |
| CC/C=C\C[C@H]1C(=O)C=C[C@H]1CCCCCCCC(=O)OC[C@H](CO[C@@H]1O[C@H](CO)[C@H](O)[C@H](O)[C@H]1O)OC(=O)CCCCCCC[C@@H]1C=CC(=O)[C@@H]1C/C=C\CC [ARABIDOPSIDE B] | 30% |
| CC/C=C\CC1C(=O)C=CC1CCCCCCCC(=O)OCC(CO[C@@H]1O[C@H](CO[C@H]2O[C@H](CO)[C@H](O)[C@H](O)[C@H]2O)[C@H](O)[C@H](O)[C@H]1O)OC(=O)CCCCCCCC1C=CC(=O)C1C/C=C\CC (stereo not given in full) [Arabidopside D] | 30% |
| CC/C=C\C[C@H]1C(=O)C=C[C@H]1CCCCCCCC(=O)OC[C@H](CO[C@@H]1O[C@H](CO)[C@H](O)[C@H](O)[C@H]1O)OC(=O)CCCCC[C@@H]1C=CC(=O)[C@@H]1C/C=C\CC [ARABIDOPSIDE A] | 30% |
